In ChEMBL document CHEMBL5376003, “Structure-Activity Relationship of FL118 Platform Position 7 Versus Position 9-Derived Compounds and Their Mechanism of Action and Antitumor Activity” (J Med Chem, 2023):
Calls of active or inactive are those of the source. The rule behind the calls is not given here.

Columns and labels:
HCT-116 [1] = assay: Induction of apoptosis in human HCT-116 cells assessed as downregulation of DHODH gene expression at 10 to 500 nM incubated for 6 to 48 hrs by RNA analysis; type: functional, cell-based; conditions: dose 10-500 nM, time 6-48 hrs
[2] = Toxicity in SCID mouse xenografted with human PDX27454 cells assessed as body weight loss at 3 to 5 mg/kg,po administrated once per week for 4 weeks; type: organism-based; conditions: in vivo, 672 h, dose 3-5 mg/kg
PDX27454 [3] = assay: Antitumor activity against human PDX27454 cells xenografted in SCID mouse model assessed as reduction in tumor growth at 2.5 to 10 mg/kg,ip administrated once per week for 4 weeks; type: functional, organism-based; conditions: dose 2.5-10 mg/kg
PDX27454 [4] = assay: Antitumor activity against human PDX27454 cells xenografted in SCID mouse model assessed as reduction in tumor growth at 3 to 7 mg/kg,po administrated once per week for 4 weeks; type: functional, organism-based; conditions: dose 3-7 mg/kg
[5] = Toxicity in SCID mouse xenografted with human PDX27454 cells assessed as animal death at 10 mg/kg,ip administrated once per week for 4 weeks; type: organism-based; conditions: in vivo, 672 h
[6] = Toxicity in SCID mouse xenografted with human PDX27454 cells assessed as body weight loss at 10 mg/kg,ip administrated once per week for 4 weeks; type: organism-based; conditions: in vivo, 672 h
PDX27454 [7] = assay: Antitumor activity against human PDX27454 cells xenografted in SCID mouse model assessed as reduction in tumor growth at 15 mg/kg,ip administrated once per week for 4 weeks; type: functional, organism-based
PDX27454 [8] = assay: Antitumor activity against human PDX27454 cells xenografted in SCID mouse model assessed as reduction in tumor growth at 10 mg/kg,ip administrated once per week for 4 weeks; type: functional, organism-based
PDX27454 [9] = assay: Antitumor activity against human PDX27454 cells xenografted in SCID mouse model assessed as reduction in tumor growth at 10 mg/kg,po administrated once per week for 4 weeks; type: functional, organism-based
PDX27454 [10] = assay: Antitumor activity against human PDX27454 cells xenografted in SCID mouse model assessed as reduction in tumor growth at 15 mg/kg,po administrated once per week for 4 weeks; type: functional, organism-based
HCT-116 [11] = assay: Induction of apoptosis in human HCT-116 cells assessed as early apoptotic cells at 2.5 nM incubated for 48 hrs by Annexin V-FITC/PI staining based flow cytometry assay; type: functional
HCT-116 [12] = assay: Induction of apoptosis in human HCT-116 cells assessed as downregulation of Bcl-2 protein expression incubated for 48 hrs by Western blotting analysis; type: functional, cell-based
HCT-116 [13] = assay: Induction of apoptosis in human HCT-116 cells assessed as increase in caspase-9 activity incubated for 48 hrs by BCA protein assay; type: functional, cell-based
HCT-116 [14] = assay: Induction of apoptosis in human HCT-116 cells assessed as increase in caspase-3 activity incubated for 48 hrs by BCA protein assay; type: functional, cell-based

With `CC[C@@]1(O)C(=O)OCc2c1cc1n(c2=O)Cc2cc3cc4c(cc3nc2-1)OCO4` as the compound, how does the Activity (HCT-116 [1]) read?
Its Activity is “Active”.

With `CC[C@@]1(O)C(=O)OCc2c1cc1n(c2=O)Cc2c-1nc1cc3c(cc1c2-c1ccc(OC)cc1)OCO3` as the compound, how does the Activity [2] read?
The Activity was “Toxic”.

And the Activity (PDX27454 [3])?
Its Activity is “Active”.

And the Activity (PDX27454 [4])?
The Activity was “Active”.

What about the Activity [5] of the same compound?
Its Activity is “Toxic”.

Which Activity [6] does the source give for `CCc1ccc(-c2c3c(nc4cc5c(cc24)OCO5)-c2cc4c(c(=O)n2C3)COC(=O)[C@]4(O)CC)cc1` here?
The Activity was “Non-Toxic”.

What about the Activity (PDX27454 [7]) of the same compound?
Its Activity is “inactive”.

What about the Activity (PDX27454 [8]) of the same compound?
Its Activity is “inactive”.

What about the Activity (PDX27454 [9]) of the same compound?
The Activity was “Active”.

And the Activity (PDX27454 [10])?
Its Activity is “Active”.

With `CC[C@@]1(O)C(=O)OCc2c1cc1n(c2=O)Cc2c-1nc1cc3c(cc1c2-c1cc(OC)cc(OC)c1)OCO3` as the compound, how does the Activity (HCT-116 [11]) read?
The Activity was 20.76%.

And the Activity (HCT-116 [12])?
The Activity was “Dose-Dependent Effect”.

What about the Activity (HCT-116 [13]) of the same compound?
Its Activity is “Dose-Dependent Effect”.

And the Activity (HCT-116 [14])?
Its Activity is “Dose-Dependent Effect”.
